According to US20130289112A1, “SALTS OF KUKOAMINE B, PREPARATION METHOD AND USE THEREOF” (priority 2010, published 2013):
Structures can show the parent of a compound that is named as a salt.

Columns and labels:
[1] = test system: RAW264.7 cells; test: Inhibition of release of inflammatory mediators (TNF-α) in RAW264.7 cells induced by LPS; format: cell-based; conditions: LPS 100 ng/ml, salt 0, 50, 100, 200 μM, 4 h, ELISA, FIG. 3
Method: (§1) 17.1 Methods: RAW264.7 cells are diluted to 1×10^6/ml in DMEM culture medium, added into a 96-well cell culture plate (200 μl per well), and incubated at 37° C. in a 5% CO2 humidified incubator for 4 h, and then the supernatant is replaced with 200 μl of serum-free DMEM culture medium after cells attachment. Next, each well is added with LPS (final concentration of 100 ng/ml), and then added with one of the salts of kukoamine B (including kukoamine B malate, kukoamine B succinate, kukoamine B lactate, kukoamine B tartrate, kukoamine B methanesulfonate, kukoamine B p-toluenesulfonate, kukoamine B glutamate, kukoamine B acetate, kukoamine B hydrochlorate, and kukoamine B sulfate) to obtain the final concentration of 0, 50, 100, and 200 μM, respectively. The control group contains no LPS. Then, the incubation goes on for 4 h. The supernatant is collected to measure the concentration of TNF-α according to the manufacturer's instructions of ELISA kit.

[2] = test system: RAW264.7 cells; test: Inhibition of release of inflammatory mediators (TNF-α) in RAW264.7 cells induced by CpG DNA; format: cell-based; conditions: CpG DNA 10 μg/ml, salt 0, 50, 100, 200 μM, 4 h, ELISA, FIG. 4
Method: as §1, with “18.1” for “17.1”, “CpG DNA” for “LPS”, “10 μg/ml ),” for “100 ng/ml),”, “CpG DNA.” for “LPS.”

[3] = test system: sepsis model of mice; test: Protective effect in the sepsis model of mice (cecal ligation and puncture, CLP); format: in vivo, Balb/c mice; conditions: 7 days; for survival rate of mice: combination with antibiotic (ampicillin sodium-sulbactam sodium 80 mg/kg), salt 2.5 mg/kg through tail vein at 0-68 hours after surgery; for protective effect to the sepsis model of mice: salt 2.5 mg/kg tail vein combined with antibiotic, FIG. 5
Excerpt: 19.1 Methods: 120 Balb/c mice, each of 19-21 g, half of which being male and half female, are divided into six groups randomly, including control group, antibiotic group, antibiotic and kukoamine B hydrochlorate group, antibiotic and kukoamine B methanesulfonate group, antibiotic and kukoamine B p-toluenesulfonate group, and antibiotic and kukoamine B benzene sulfonate group. Each group contains 20 mice. The mice are narcotized with anesthesia machine; the vapor concentration of isoflurane is 5%; the pressure of the mixed gas is 1 MPa; anesthesia time is about 5 min. The mice model are setup by cecal ligation and puncture (CLP) comprising the following steps: the mice are maintained in supine position, and the abdomen skin is disinfected with iodophor; the skin, muscular layer and peritoneum below the midpoint of linea alba 0.3 cm are cut open with ophthalmic scissors (the length of the incisions is 0.8 CM); the muscular layer is picked up with ophthalmic forceps, and the enterocoelia is explored with ophthalmic forceps; the cecum is pulled out and ligated with No. 4 suture at 0.5 CM from the end of cecum; then, the cecum is vertically punctured with No. 12 needle, and squeezed to extrude contents; finally, the cecum is put back and the incision is stitched. Thereafter, the mice in control group are injected with 0.2 ml of sterile saline through tail vein; the mice in antibiotic group are injected with antibiotic (ampicillin sodium-sulbactam sodium) at a dosage of 80 mg/kg body weight through tail vein at 4 hours after surgery; the mice in other four groups are separately injected with kukoamine B hydrochlorate, kukoamine B methanesulfonate, kukoamine B p-toluenesulfonate and kukoamine B benzene sulfonate at a dosage of 2.5 mg/kg body weight at a time through tail vein at 0, 4, 12, 20, 28, 36, 44, 52, 60 and 68 hours after surgery.

[4] = Affinity assay of salts of kukoamine B with lipid A (IAsys plus Affinity Sensor); format: binding; conditions: 1 mg in 1 ml PBS (0.01 M, pH 7.4), 5 μl added to cuvette with 45 μl PBS, immobilized lipid A, 3 min; curves in FIG. 1
Method: 15.1 Methods: The affinity assay is carried out according to the methods disclosed in the Chinese patent titled “Use of an active ingredient or active substance selected and isolated from traditional Chinese herbs in the preparation of drugs for treating sepsis” (Chinese patent Number ZL 200510070677.3) granted to the applicant, which mainly comprises the following steps:
(1) Lipid A is immobilized on the reacting surfaces of non-derivative cuvettes according to the instructions of immobilization of lipid in the manufacturer's instructions of IAsys plus Affinity Sensor. Wherein, the end of hydrophobic side chain of lipid A was immobilized on cuvette, and the hydrophilic end is floating outside, which act as target site of binding reaction;
(§2) (2) 1 mg of each of the salts, including kukoamine B hydrochlorate, kukoamine B hydrobromide, kukoamine B sulfate, kukoamine B phosphate, kukoamine B acetate, kukoamine B maleate, kukoamine B succinate, kukoamine B malate, kukoamine B lactate, kukoamine B tartrate, kukoamine B methanesulfonate, kukoamine B p-toluenesulfonate, kukoamine B glutamate, and kukoamine B aspartate, is fully dissolved by 1 ml of PBS solution (0.01 M, pH 7.4), respectively;
(3) 5 μl of each of the solution obtained in step (2) is added into the affinity sensor's cuvettes (containing 45 μl of PBS solution) previously immobilized with lipid A to carry out the reaction, respectively;
(4) The binding reaction is carried out for 3 min, and the binding curves are recorded;
(5) Each of the cuvettes is washed with 50 μl of PBS solution for 3 times, and dissociation curves are recorded;
(6) Each of the cuvettes is washed with 0.1 M HCl solution for 3 times, and the regeneration curves are recorded.

[5] = Neutralizing test on LPS in vitro (kinetic turbidimetric limulus test); format: biochemical; conditions: 20 μM solution mixed with equal volume of LPS 0.25 ng/ml, 37° C. 30 min, TAL reagent; FIG. 2
Method: 16.1 Methods: The neutralizing test is carried out according to the manufacturer's instructions of 32 Well Kinetic Tube Reader (ATi321-06) endotoxin detector, which mainly comprises the following steps:
as §2, with “(1) Each” for “(2) 1 mg of each”, “prepared into 20 μM” for “fully dissolved by 1 ml of PBS”, “with nonpyrogenic water,” for “(0.01 M, pH 7.4),”
(2) 100 μl of each of the solution obtained in step (1) is separately mixed with equal volume of LPS solution (0.25 ng/ml). At the same time, the control group is established, which is a mixed solution containing 100 μl of nonpyrogenic water and equal volume of LPS solution (0.25 ng/ml). The LPS group and control group are incubated at 37° C. for 30 min. Then, 100 μl of the reaction solutions of LPS group and control group are separately added into a detector tube containing 100 μl of TAL reagents, and LPS value of each group are detected by kinetic turbidimetric limulus test according to the manufacturer's instructions of 32 Well Kinetic Tube Reader (ATi321-06) Bacterial Endotoxin Detection system. The test of each concentration is repeated three times;

Row | Compound | inhibition of the release of TNF-α induced by LPS [1] | inhibition of the release of TNF-α induced by CpG DNA [2] | survival rate of mice [3] [%] | protective effect to the sepsis model of mice [3] | binding reaction with lipid A [4] | neutralization of LPS in vitro [5] | comparison of protective effect among the salts ([3]; four salts compared)
1 | NCCCN(CCCCNCCCNC(=O)CCc1ccc(O)c(O)c1)C(=O)CCc1ccc(O)c(O)c1 [kukoamine B malate] | can inhibit the release of TNF-α | can inhibit the release of TNF-α |  |  |  |  | 
2 | NCCCN(CCCCNCCCNC(=O)CCc1ccc(O)c(O)c1)C(=O)CCc1ccc(O)c(O)c1 [kukoamine B hydrochlorate] |  |  | 20 | have protective effects to the sepsis model of mice |  |  | 
3 | CC(=O)O.NCCCN(CCCCNCCCNC(=O)CCc1ccc(O)c(O)c1)C(=O)CCc1ccc(O)c(O)c1 [kukoamine B acetate] | can inhibit the release of TNF-α | can inhibit the release of TNF-α |  |  | can bind with lipid A | can neutralize LPS in vitro | 
4 | Cc1ccc(S(=O)(=O)O)cc1.NCCCN(CCCCNCCCNC(=O)CCc1ccc(O)c(O)c1)C(=O)CCc1ccc(O)c(O)c1 [kukoamine B p-toluenesulfonate] | can inhibit the release of TNF-α | can inhibit the release of TNF-α | 20 | have protective effects to the sepsis model of mice | can bind with lipid A | can neutralize LPS in vitro | 
5 | NCCCN(CCCCNCCCNC(=O)CCc1ccc(O)c(O)c1)C(=O)CCc1ccc(O)c(O)c1 [kukoamine B hydrobromide] |  |  |  |  | can bind with lipid A | can neutralize LPS in vitro | 
6 | kukoamine B benzene sulfonate |  |  | 30 | have protective effects to the sepsis model of mice |  |  | 
7 | CS(=O)(=O)O.NCCCN(CCCCNCCCNC(=O)CCc1ccc(O)c(O)c1)C(=O)CCc1ccc(O)c(O)c1 [kukoamine B methanesulfonate] | can inhibit the release of TNF-α | can inhibit the release of TNF-α | 50 | have protective effects to the sepsis model of mice | can bind with lipid A | can neutralize LPS in vitro | has the best effect
8 | CC(O)C(=O)O.NCCCN(CCCCNCCCNC(=O)CCc1ccc(O)c(O)c1)C(=O)CCc1ccc(O)c(O)c1 [kukoamine B lactate] | can inhibit the release of TNF-α | can inhibit the release of TNF-α |  |  | can bind with lipid A | can neutralize LPS in vitro | 
